Tested on: delayed rectifier K^+ currents
Test: Voltage-clamp outward K^+ currents at HP −20 mV in unidentified DRG neurons
Type: cell-based, rat
Conditions: for K^+ current at HP: −20 mV, relative value (before compound = 1): unidentified DRG neurons
Method: Experiments were performed on adult female Sprague Dawley rats. First and second series of the experiments were performed, respectively, in unidentified DRG neurons and a specific population of DRG neurons innervating the urinary bladder. The population of DRG neurons that innervate the urinary bladder were labeled by retrograde axonal transport of the fluorescent dye, Fast Blue (4% w/v) (Polyloy, Gross Umstadt, Germany), injected into the wall of the bladder in halothane-anesthetized animals 7 days before the dissociation. The dye was injected with a 28 gauge needle at three to six sites on the dorsal surface of the organ (5-6 μL per site, total volume of 20-30 μL). Each injection site was washed with saline to minimize contamination of adjacent organs with the dye.
Freshly dissociated neurons from DRG were prepared from halothane-anesthetized animals. L6 and S1 DRG were dissected from animals and then dissociated in a shaking bath for 25 minutes at 35° C. with 5 mL DMEM (Sigma) containing 0.3 mg/mL trypsin (Type 3, Sigma), 1 mg/mL collagenase (Type 1, Sigma), and 0.1 mg/mL deoxyribonuclease (Type 4, Sigma). Trypsin inhibitor (Type 2a, Sigma) was then added thereto to neutralize the activity of trypsin. Individual DRG cell bodies were isolated by trituration and then plated on a poly-L-lysine-coated 35 mm Petri dishes.
Dye-labeled primary afferent neurons that innervate the urinary bladder were identified using an inverted phase-contrast microscope (Nikon, Tokyo, Japan) with fluorescent attachments (UV-1A filter; excitation wavelength, 365 nm). Gigaohm-seal whole-cell recordings were performed at room temperature (20-22° C.) on each labeled neuron in a culture dish that usually contained three to seven labeled cells among a few hundred unlabeled neurons. The internal solution contained (in mmol/L): KCl 140, CaCl2 1, MgCl2 2, EGTA 11, HEPES 10, Mg-ATP 2, and Tris-GTP 0.4 adjusted to pH 7.4 with KOH. Patch electrodes had resistances of 1-4 MΩ when filled with the internal solution. Neurons were superfused at a flow rate of 1.5 mL/minutes with an external solution containing (in mmol/L): NaCl 150, KCl 5, CaCl2 2.5, MgCl2 1, HEPES 10, and D-glucose 10, adjusted to pH 7.4 with NaOH. All recordings were made with an Axopatch-1D patch-clamp amplifier (Axon Instruments, Foster City, Calif.), and data were acquired and analyzed by PCLAMP software (Axon Instruments).
In voltage-clamp recordings, outward K^+ currents and inward Na^+ currents were measured. For the isolation of K^+ currents, the external solution was changed to one containing (in mmol/L): choline-Cl 150, KOH 5, CaCl2 0.03, HEPES 10, Mg(OH)2 3, and D-glucose 10, adjusted to pH 7.4 with HCl.
In first series of experiments using unidentified DRG neurons, outward K^+ currents were evoked by voltage steps to +60 mV, 800 ms long from a holding potentials of −90 mV, this was followed by a 1-second conditioning prepulse to −20 mV followed by a second pulse to +60 mV, identical to the first in the sequence. In the second series of experiments using Fast Blue-labeled bladder afferent neurons, slowly-inactivating A-type K^+ currents were isolated by. subtraction of outward K^+ currents activated from a holding potential of −40 mV (on the condition of inactivation of the majority of slowly-inactivating A-type K^+ currents) from those activated from a holding potential of −120 mV (on the condition of full activation of slowly-inactivating A-type K^+ currents). A compound was added cumulatively, starting with a lower concentration. Currents were measured at the maximum (peak) and normalized to control (before addition of the compound).

C[C@](O)(C(=O)Nc1cccc2c1C(=O)c1sccc1CS2(=O)=O)C(F)(F)F [Compound 1, (S)-(+)-N-(5,5-dioxido-10-oxo-4,10-dihydrothieno[3,2-c][l]benzothiepin-9-yl)-3,3,3-trifluoro-2-hydroxy-2-methylpropanamide]
K^+ current at HP: −20 mV, relative value (1.0 × 10^−5 mol/L, in the presence of 5 μmol/L verapamil): 1.00 ± 0.02 | K^+ current at HP: −20 mV, relative value (1.0 × 10^−5 mol/L, in the presence of 20 mmol/L tetraethylammonium): 1.01 ± 0.02 | K^+ current at HP: −20 mV, relative value (before compound = 1) (1.0 × 10^−5 mol/L): 0.88 ± 0.07 | K^+ current at HP: −20 mV, relative value (1.0 × 10^−6 mol/L, in the presence of 5 μmol/L verapamil): 1.00 ± 0.01 | K^+ current at HP: −20 mV, relative value (1.0 × 10^−6 mol/L, in the presence of 20 mmol/L tetraethylammonium): 1.00 ± 0.00 | K^+ current at HP: −20 mV, relative value (before compound = 1) (1.0 × 10^−6 mol/L): 1.00 ± 0.02 | K^+ current at HP: −20 mV, relative value (1.0 × 10^−7 mol/L, in the presence of 5 μmol/L verapamil): 1.00 ± 0.01 | K^+ current at HP: −20 mV, relative value (1.0 × 10^−7 mol/L, in the presence of 20 mmol/L tetraethylammonium): 0.99 ± 0.02 | K^+ current at HP: −20 mV, relative value (before compound = 1) (1.0 × 10^−7 mol/L): 1.02 ± 0.01 | K^+ current at HP: −20 mV, relative value (before compound = 1) (1.0 × 10^−8 mol/L): 0.98 ± 0.04 | K^+ current at HP: −20 mV, relative value (before compound = 1) (2.5 × 10^−8 mol/L): 1.01 ± 0.03 | K^+ current at HP: −20 mV, relative value (5.0 × 10^−4 mol/L, in the presence of 5 μmol/L verapamil): 0.83 ± 0.06 | K^+ current at HP: −20 mV, relative value (5.0 × 10^−4 mol/L, in the presence of 20 mmol/L tetraethylammonium): 0.25 ± 0.04 | K^+ current at HP: −20 mV, relative value (5.0 × 10^−4 mol/L, in the presence of 60 mmol/L tetraethylammonium): 0.54 ± 0.02 | K^+ current at HP: −20 mV, relative value (5.0 × 10^−5 mol/L, in the presence of 5 μmol/L verapamil): 0.98 ± 0.01 | K^+ current at HP: −20 mV, relative value (5.0 × 10^−5 mol/L, in the presence of 20 mmol/L tetraethylammonium): 0.84 ± 0.06 | K^+ current at HP: −20 mV, relative value (5.0 × 10^−5 mol/L, in the presence of 60 mmol/L tetraethylammonium): 0.95 ± 0.03 | K^+ current at HP: −20 mV, relative value (before compound = 1) (5.0 × 10^−5 mol/L): 0.81 ± 0.08 | K^+ current at HP: −20 mV, relative value (5.0 × 10^−6 mol/L, in the presence of 5 μmol/L verapamil): 1.01 ± 0.01 | K^+ current at HP: −20 mV, relative value (5.0 × 10^−6 mol/L, in the presence of 20 mmol/L tetraethylammonium): 0.98 ± 0.01 | K^+ current at HP: −20 mV, relative value (5.0 × 10^−6 mol/L, in the presence of 60 mmol/L tetraethylammonium): 0.97 ± 0.02 | K^+ current at HP: −20 mV, relative value (5.0 × 10^−7 mol/L, in the presence of 5 μmol/L verapamil): 1.00 ± 0.01 | K^+ current at HP: −20 mV, relative value (5.0 × 10^−7 mol/L, in the presence of 20 mmol/L tetraethylammonium): 1.01 ± 0.01 | K^+ current at HP: −20 mV, relative value (5.0 × 10^−7 mol/L, in the presence of 60 mmol/L tetraethylammonium): 0.97 ± 0.03 | K^+ current at HP: −20 mV, relative value (before compound = 1) (5.0 × 10^−7 mol/L): 1.01 ± 0.02 | K^+ current at HP: −20 mV, relative value (5.0 × 10^−8 mol/L, in the presence of 5 μmol/L verapamil): 1.00 ± 0.00 | K^+ current at HP: −20 mV, relative value (5.0 × 10^−8 mol/L, in the presence of 20 mmol/L tetraethylammonium): 0.99 ± 0.01 | K^+ current at HP: −20 mV, relative value (5.0 × 10^−8 mol/L, in the presence of 60 mmol/L tetraethylammonium): 1.00 ± 0.01 | K^+ current at HP: −20 mV, relative value (before compound = 1) (5.0 × 10^−8 mol/L): 1.00 ± 0.01 | K^+ current at HP: −20 mV, relative value (5.0 × 10^−9 mol/L, in the presence of 20 mmol/L tetraethylammonium): 0.99 ± 0.00 | K^+ current at HP: −20 mV, relative value (before compound = 1) (5.0 × 10^−9 mol/L): 0.98 ± 0.02 | influence upon delayed rectifier K^+ currents (unidentified DRG cells, HP −20 mV): does not have no influences (little influences)

Source: US20040132803A1, “Agent for the treatment of overactive bladder” (priority 2003, published 2004)
